Reference: article PMC6505943, “Identification of a potential allosteric site of Golgi α-mannosidase II using computer-aided drug design” (PLoS ONE, 2019)
Entries after “also recorded” stand apart in the source; their conditions may differ. Like-named read-outs stand apart in the source and are kept apart here.

Experiments:
[1] = test system: β-glucosidase of sweet almonds; assay: selectivity enzyme assay with β-glucosidase of sweet almonds (4-MU-Glc substrate); format: biochemical
Experimental: (§1) Inhibition assays with dGMII were performed at pH 5.75 in MES buffer (40 mM), supplemented with bovine serum albumin 1.1% (0.1% final concentration in MES buffer) and ZnSO4-solution 1.1% (0.1% final concentration in MES buffer). The recombinantly expressed and purified enzyme was added to a final concentration of 0.002 mg/mL per well. 4-Methylumbellifer-7-yl-α-D-mannopyranoside (4-MU-Man) was synthesized (S1 File and S2 Fig) and used as substrate with a final concentration of 1 mM per well. The total reaction volume was 50 μL and the mixture was incubated at 37°C for five minutes. […] The release of 4-methylumbelliferone was measured for 15 min by fluorescence spectroscopy using Greiner 96 Flat Bottom Black Polystyrol plates and a Tecan Reader Infinite F200 PRO equipped with a filter system (355 nm excitation and 485 nm emission). Assays in order to investigate the selectivity of compounds between different mannosidases were carried out on JBM. Assays concerning the selectivity between the desired mannosidase inhibition and a potential glucosidase inhibition were carried out on the β-glucosidase of sweet almonds using 4-methylumbelliferyl-β-D-glucopyranoside (4-MU-Glc) as substrate. The substrate 4-MU-Glc was synthesized as described in the supplementary information (S1 File and S3 Fig). JBM and β-glucosidase from sweet almonds were purchased from Sigma Aldrich. […]

JBM = target: T1, JBM (Canavalia ensiformis, UniProt C0HJB3); assay: selectivity enzyme assay with JBM (4-MU-Man substrate); format: biochemical, Jack bean
T1 construct: purchased Sigma Aldrich
T1 sequence (C0HJB3 1-562 limits assumed): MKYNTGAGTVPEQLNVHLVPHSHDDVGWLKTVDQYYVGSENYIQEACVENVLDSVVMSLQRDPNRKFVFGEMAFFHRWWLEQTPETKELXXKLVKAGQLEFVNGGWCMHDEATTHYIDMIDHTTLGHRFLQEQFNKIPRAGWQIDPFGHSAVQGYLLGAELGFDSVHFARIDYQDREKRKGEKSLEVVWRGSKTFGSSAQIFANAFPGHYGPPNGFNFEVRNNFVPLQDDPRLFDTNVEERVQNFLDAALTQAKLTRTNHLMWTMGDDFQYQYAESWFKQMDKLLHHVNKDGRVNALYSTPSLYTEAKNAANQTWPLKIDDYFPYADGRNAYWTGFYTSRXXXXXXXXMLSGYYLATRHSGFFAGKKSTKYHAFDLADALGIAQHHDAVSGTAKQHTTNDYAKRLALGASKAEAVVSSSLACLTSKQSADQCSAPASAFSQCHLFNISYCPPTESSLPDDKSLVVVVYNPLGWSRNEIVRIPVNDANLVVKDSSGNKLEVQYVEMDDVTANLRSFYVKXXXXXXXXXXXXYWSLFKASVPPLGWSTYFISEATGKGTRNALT
T1 sequence (C0HJB3 563-981 limits assumed): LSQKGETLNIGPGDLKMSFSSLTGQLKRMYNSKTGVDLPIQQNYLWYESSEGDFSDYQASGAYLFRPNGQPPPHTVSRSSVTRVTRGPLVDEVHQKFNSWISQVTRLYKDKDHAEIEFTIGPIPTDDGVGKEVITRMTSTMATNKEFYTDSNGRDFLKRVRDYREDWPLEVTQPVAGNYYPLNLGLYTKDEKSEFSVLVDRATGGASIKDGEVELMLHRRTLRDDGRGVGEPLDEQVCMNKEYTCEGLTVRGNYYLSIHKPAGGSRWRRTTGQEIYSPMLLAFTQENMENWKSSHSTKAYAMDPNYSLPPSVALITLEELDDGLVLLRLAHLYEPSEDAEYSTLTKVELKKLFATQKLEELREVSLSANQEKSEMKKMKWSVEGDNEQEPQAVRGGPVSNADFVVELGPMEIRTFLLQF
Experimental: as §1, with “Fig).” for “Fig). JBM and β-glucosidase from sweet almonds were purchased from Sigma Aldrich.”
KM values were calculated using the Michaelis-Menten kinetics Eq (3) v=vmax[S]/KM+[S] […]

[2] = target: T2, Golgi α-mannosidase II from Drosophila melanogaster (dGMII) (Drosophila melanogaster, UniProt Q24451); assay: fluorometric enzyme inhibition assay with dGMII (4-MU-Man substrate); format: biochemical; details: for inhibition at 300 µM: at 300 μM compound, 1 mM 4-MU-Man, pH 5.75
T2 construct: His tag; made in house; host or cells: Drosophila Schneider 2 (S2) cells, secreted into the medium
T2 sequence (Q24451 76-1108 limits assumed): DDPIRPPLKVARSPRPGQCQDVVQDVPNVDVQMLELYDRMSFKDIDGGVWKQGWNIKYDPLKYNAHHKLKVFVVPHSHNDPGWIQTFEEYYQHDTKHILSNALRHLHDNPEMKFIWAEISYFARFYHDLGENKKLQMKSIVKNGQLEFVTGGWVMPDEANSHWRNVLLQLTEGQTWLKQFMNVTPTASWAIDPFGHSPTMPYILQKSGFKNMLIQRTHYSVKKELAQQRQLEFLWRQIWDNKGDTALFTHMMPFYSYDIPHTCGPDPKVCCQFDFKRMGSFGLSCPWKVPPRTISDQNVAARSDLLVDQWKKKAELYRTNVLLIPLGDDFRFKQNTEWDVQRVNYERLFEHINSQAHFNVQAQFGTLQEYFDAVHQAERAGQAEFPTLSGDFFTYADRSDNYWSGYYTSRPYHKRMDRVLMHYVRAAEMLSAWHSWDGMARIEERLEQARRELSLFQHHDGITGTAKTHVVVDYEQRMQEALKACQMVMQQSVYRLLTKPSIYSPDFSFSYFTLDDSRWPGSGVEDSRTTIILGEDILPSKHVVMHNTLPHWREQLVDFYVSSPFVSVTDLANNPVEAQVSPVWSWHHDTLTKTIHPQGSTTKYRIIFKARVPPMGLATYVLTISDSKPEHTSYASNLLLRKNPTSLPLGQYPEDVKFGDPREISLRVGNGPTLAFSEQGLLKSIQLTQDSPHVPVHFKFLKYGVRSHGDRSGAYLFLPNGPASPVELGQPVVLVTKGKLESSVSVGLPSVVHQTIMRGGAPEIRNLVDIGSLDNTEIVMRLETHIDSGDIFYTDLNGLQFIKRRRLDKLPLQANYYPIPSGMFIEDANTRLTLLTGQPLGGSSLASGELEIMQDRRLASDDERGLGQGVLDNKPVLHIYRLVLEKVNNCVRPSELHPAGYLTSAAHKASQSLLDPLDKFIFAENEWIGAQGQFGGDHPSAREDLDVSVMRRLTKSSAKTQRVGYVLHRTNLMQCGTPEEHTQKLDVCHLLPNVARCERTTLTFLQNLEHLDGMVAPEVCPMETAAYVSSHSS
Experimental: Inhibition assays with dGMII were performed at pH 5.75 in MES buffer (40 mM), supplemented with bovine serum albumin 1.1% (0.1% final concentration in MES buffer) and ZnSO4-solution 1.1% (0.1% final concentration in MES buffer). The recombinantly expressed and purified enzyme was added to a final concentration of 0.002 mg/mL per well. 4-Methylumbellifer-7-yl-α-D-mannopyranoside (4-MU-Man) was synthesized (S1 File and S2 Fig) and used as substrate with a final concentration of 1 mM per well. The total reaction volume was 50 μL and the mixture was incubated at 37°C for five minutes. […] The release of 4-methylumbelliferone was measured for 15 min by fluorescence spectroscopy using Greiner 96 Flat Bottom Black Polystyrol plates and a Tecan Reader Infinite F200 PRO equipped with a filter system (355 nm excitation and 485 nm emission). Assays in order to investigate the selectivity of compounds between different mannosidases were carried out on JBM. Assays concerning the selectivity between the desired mannosidase inhibition and a potential glucosidase inhibition were carried out on the β-glucosidase of sweet almonds using 4-methylumbelliferyl-β-D-glucopyranoside (4-MU-Glc) as substrate. The substrate 4-MU-Glc was synthesized as described in the supplementary information (S1 File and S3 Fig). JBM and β-glucosidase from sweet almonds were purchased from Sigma Aldrich. The enzyme β-glucosidase from sweet almonds was diluted in citrate buffer in order to obtain a concentration of 0.04 mg/mL. The inhibition assays were carried out at a pH of 5.0 in citrate buffer (20 mM). The substrate concentration was chosen to be 1 mM per well in accordance with the results of several KM value determinations since this concentration ensures good enzyme activity (KM = 1.9 ± 0.1 mM). Inhibition assays JBM were performed in the same buffer as for dGMII. The final concentration of the enzyme per well was 0.003 mg/ml. The substrate 4-MU-Man was used with a final concentration of 0.4 mM per well. The conducted assays with JBM and the β-glucosidase from sweet almonds were performed as described for dGMII.
The most promising compounds according to the molecular modeling studies were tested at 300 μM final concentration except for compound 24 which was tested at 100 μM per well due to the small amount available. […] The inhibition was calculated with the following Eq (2): Inhibition(%)=(1−activity(withinhibitor)/activity(withoutinhibitor))∙100 (2)
KM values were calculated using the Michaelis-Menten kinetics Eq (3) v=vmax[S]/KM+[S] (3) whereby vmax is the maximal velocity, [S] the substrate concentration and KM the substrate concentration yielding a velocity of vmax/2.
IC50 values were calculated using following Eq (4): y=ymax−ymin/1+([I]/IC50)^S+ymin (4) whereby ymax is defined as 100% enzyme activity, ymin as 0% enzyme activity, s is defined as the slope of the linear part of the curves (Hill coefficient), and [I] represents the inhibitor concentration. For the KM value determination, substrate concentrations ranging from 0.4 to 8.0 mM for dGMII and from 0.008 to 1.6 mM for JBM were used. For the IC50 determination of swainsonine, concentrations ranging from 6 to 120 nM were applied. […] The program GraFit (5.0.13, Erithacus Software, Horley, Surrey, UK (2006)) was used to calculate the IC50 values.

**Q.** Which Km ([1]; substrate of β-glucosidase from sweet almonds) does the source give for `Cc1cc(=O)oc2cc(O[C@@H]3O[C@H](CO)[C@@H](O)[C@H](O)[C@H]3O)ccc12` [4-MU-Glc, 4-methylumbelliferyl-β-D-glucopyranoside, reference compound] here?
**A.** 1900 ± 100 µM

**Q.** For `Cc1cc(=O)oc2cc(O[C@H]3O[C@H](CO)[C@@H](O)[C@H](O)[C@@H]3O)ccc12` [4-MU-Man, 4-Methylumbellifer-7-yl-α-D-mannopyranoside, reference compound], which Km (JBM; substrate of JBM) is on record?
**A.** 600 ± 60 µM

**Q.** What about the Km ([2]; substrate of dGMII) of the same compound?
**A.** 3600 ± 300 µM

**Q.** With `N#CC(C(=O)C1CCCCN1C(=O)c1cccnc1)c1ccccn1` (centres unmarked) [Compound 18] as the compound, how does the inhibition at 300 µM (JBM; at 300 μM, 0.4 mM 4-MU-Man) read?
**A.** 70%

**Q.** And the mode of inhibition ([2]; IC50 at varying substrate concentrations 0.1 to 3 mM)?
**A.** non-competitive inhibition

**Q.** And the inhibition at 300 µM [2]?
**A.** ~46%

**Q.** And the ligand efficiency ([2]; based on the inhibitory activity observed in the fluorometric assay)?
**A.** approximately 0.20 kcal/mol

**Q.** What about the IC50 ([2]; dGMII, 4-MU-Man substrate, read-out: IC50) of the same compound?
**A.** 217 ± 44.3 µM

**Q.** And the “inhibition of the β-glucosidase of sweet almonds” value ([1]; at 300 μM, 1 mM 4-MU-Glc, pH 5.0)?
**A.** no significant inhibition; also recorded: did not exhibit significant inhibition

**Q.** For `O=C(Cc1ccn[nH]1)NC[C@@H](O)c1cc2ccccc2s1` [Compound 20], which inhibition at 300 µM [2] is on record?
**A.** ~41%

**Q.** Which IC50 [2] does the source give for `O[C@H]1[C@H]2[C@H](O)CCCN2C[C@H]1O` [swainsonine, reference compound] here?
**A.** 0.034 ± 0.0014 µM
